Source: paper PMC11589570, “Critical assessment of LC3/GABARAP ligands used for degrader development and ligandability of LC3/GABARAP binding pockets” (Nature Communications, 2024)

Target: LC3A (Homo sapiens, UniProt Q9H492)
Test: FP assay with Cy5-labelled p62 LIR tracer (protein titration and tracer displacement)
Assay type: binding
Conditions: LC3A tracer displacement, normalized on p62-LIR positive control

SMILES | % tracer bound @LC3A
CCCCCCC(Sc1nc(Cl)cc(Nc2nc(-c3ccc(F)c(F)c3)cs2)n1)C(=O)O (centres unmarked) [TH044] | 76%
CCCCCCC(Sc1nc(Cl)cc(Nc2nc(-c3ccc(Cl)cc3Cl)cs2)n1)C(=O)O (centres unmarked) [TH102] | 78%
CCCCCCC(Sc1nc(Cl)cc(Nc2nc(-c3ccccc3)cs2)n1)C(=O)O (centres unmarked) [TH020] | 84%
CCCCCCC(Sc1nc2ccc(NCc3ccc(Cl)c(Cl)c3)cc2s1)C(=O)O (centres unmarked) [TH198] | 79%
CCCCCCC(Sc1nc2ccc(NC(=O)c3ccc(C(C)(C)C)cc3)cc2s1)C(=O)O (centres unmarked) [TH177] | 85%
COc1ccc(CN(Cc2cccc(C#N)c2)S(=O)(=O)c2ccc(C(=O)O)cc2)cc1 [TH061] | 83%
O=C(NCc1ccccc1)c1ccc(S(=O)(=O)Nc2ccccc2)cc1 [TH253] | 88%
CCCCCCC(Sc1nc(Cl)cc(Nc2nc(-c3ccccc3)c(CC)s2)n1)C(=O)O (centres unmarked) [TH100] | 77%
CCCCCCC(Sc1nc(Cl)cc(Nc2nc(-c3ccc(F)cc3F)cs2)n1)C(=O)O (centres unmarked) [TH054] | 75%
CCCCCCC(Sc1nc2ccc(NCc3ccc(-c4ccccc4)cc3)cc2s1)C(=O)O (centres unmarked) [TH200] | 72%
CCN(Cc1ccccc1)C(=O)c1ccc(S(=O)(=O)Nc2ccccc2)cc1 [TH677] | 87%
COc1ccc(CN(CC2CCCCC2)S(=O)(=O)c2ccc(C(=O)O)cc2)cc1 [TH119] | 92%
O=C(O)c1ccc(S(=O)(=O)N(Cc2ccc(Oc3ccccc3)cc2)CC2CCCCC2)cc1 [TH133] | 82%
CCC(Sc1nc(Cl)cc(Nc2nc(-c3ccc(Cl)cc3)cs2)n1)C(=O)O (centres unmarked) [TH035] | 85%
CCCCCCC(Sc1nc2ccc(NC(=O)c3ccc(-c4ccccc4)cc3)cc2s1)C(=O)O (centres unmarked) [TH181] | 78%
CCCCCCC(Sc1nc(Cl)cc(Nc2nc(-c3ccc(-c4ccccc4)cc3)cs2)n1)C(=O)O (centres unmarked) [TH104] | 82%
CCCCCCC(Sc1nc(Cl)cc(Nc2nc3c(s2)CCc2cc(OC)ccc2-3)n1)C(=O)O (centres unmarked) [TH062] | 76%
